Assay results taken from patent publication US9113629B2, “4-amino-6-(4-substituted-phenyl)-picolinates and 6-amino-2-(4-substituted-phenyl)-pyrimidine-4-carboxylates and their use as herbicides” (DOW AGROSCIENCES LLC, priority 2013, dated 2015).

Legend:
Assay type in all cases: in vivo
[1] = test system: AVEFA: wild oats (Avena fatua); test: Pre-emergent Test I herbicidal activity; conditions: pre-emergence, 336 h, read-out: Visual Growth Reduction (%) 14 Days After Application, AVEFA; for pest or weed control at 4040 g/ha: 4.04 kg ai/ha; for pest or weed control at 4000 g/ha: 4 kg ai/ha
Method: (§1) Pre-emergent Test I Seeds of test species were planted into round plastic pots (5-inch diameter) containing sandy loam soil. After planting, all pots were sub-irrigated 16 h prior to compound application. Compounds were dissolved in a 97:3 v/v (volume/volume) mixture of acetone and dimethyl sulfoxide (DMSO) and diluted to the appropriate concentration in a final application solution containing water, acetone, isopropanol, DMSO and Agri-dex (crop oil concentrate) in a 59:23:15:1.0:1.5 v/v ratio and 0.02% w/v (weight/volume) of Triton X-155 to obtain the spray solution containing the highest application rate. Additional application rates were obtained by serial dilution of the high rate solution with the above application solution. Formulated compound (2.7 mL) was applied pipetted evenly over the soil surface followed by incorporation with water (15 mL). Following treatment, pots were returned to the greenhouse for the duration of the experiment. The greenhouse was programmed for an approximate 15 h photoperiod which was maintained at about 23-29° C. during the day and 22-28° C. during the night. Nutrients and water were added on a regular basis through surface irrigation and supplemental lighting was provided with overhead metal halide 1000-Watt lamps as necessary. Herbicidal effect ratings were obtained 14 days after treatment. All evaluations were made relative to appropriate controls on a scale of 0 to 100 where 0 represents no herbicidal effect and 100 represents plant death or lack of emergence from the soil.

[2] = test system: AMARE: redroot pigwseed (Amaranthus retroflexus); test: Pre-emergent Test I herbicidal activity; conditions: pre-emergence, 336 h, read-out: Visual Growth Reduction (%) 14 Days After Application, AMARE; for pest or weed control at 4040 g/ha: 4.04 kg ai/ha; for pest or weed control at 4000 g/ha: 4 kg ai/ha
Method: as §1

[3] = test system: IPOHE: ivyleaf morningglory (Ipomoea hederecea); test: Pre-emergent Test I herbicidal activity; conditions: pre-emergence, 336 h, read-out: Visual Growth Reduction (%) 14 Days After Application, IPOHE; for pest or weed control at 4040 g/ha: 4.04 kg ai/ha; for pest or weed control at 4000 g/ha: 4 kg ai/ha
Method: as §1

[4] = test system: HELAN: sunflower (Helianthus annuus); test: Pre-emergent Test I herbicidal activity; conditions: pre-emergence, 336 h, read-out: Visual Growth Reduction (%) 14 Days After Application, HELAN; for pest or weed control at 4040 g/ha: 4.04 kg ai/ha; for pest or weed control at 4000 g/ha: 4 kg ai/ha
Method: as §1

[5] = test system: SETFA: giant foxtail (Setaria faberi); test: Pre-emergent Test I herbicidal activity; conditions: pre-emergence, 336 h, read-out: Visual Growth Reduction (%) 14 Days After Application, SETFA; for pest or weed control at 4040 g/ha: 4.04 kg ai/ha; for pest or weed control at 4000 g/ha: 4 kg ai/ha
Method: as §1

[6] = test system: AVEFA: wild oats (Avena fatua); test: Post-emergent Test I herbicidal activity; conditions: post-emergence, 336 h, read-out: Visual Growth Reduction (%) 14 Days After Application, AVEFA; for pest or weed control at 4040 g/ha: 4.04 kg ai/ha
Method: (§2) Post-emergent Test I Seeds test species were obtained from commercial suppliers and planted into a 13 cm diameter-round pot containing soil-less media mix (metro-mix 360®, Sun Gro Horticulture). Postemergence treatments were planted 8-12 days prior to application and cultured in a greenhouse equipped with supplemental light sources to provide a 16 h photoperiod at 24-29° C. All pots were surface irrigated.
(§3) A weighted amount, determined by the highest rate to be tested, of each compound was dissolved in 1.3 mL acetone-DMSO (97:3, v/v) and diluted with 4.1 mL water-isopropanol-crop oil concentrate (78:20:2, v/v/v) containing 0.02% Triton X-155 to obtain concentrated stock solutions. Additional application rates were obtained by serial dilution of the high rate solution into a solution containing appropriate volume of 97:3 v/v mixture of acetone and DMSO and appropriate volume of an aqueous mixture of water, isopropyl alcohol, crop oil concentrate (78:20:2, v/v/v) containing 0.02% Triton X-155.
(§4) Formulated compounds were applied using a DeVilbiss® compressed air sprayer at 2-4 psi. Following treatment, pots were returned to the greenhouse for the duration of the experiment. All pots were sub-irrigated as need to provide optimum growing conditions. All pots were fertilized one time per week by subirrigating with Peters Peat-Lite Special® fertilizer (20-10-20).
(§5) […] All evaluations were made visually on a scale of 0 to 100 where 0 represents no activity and 100 represents complete plant death. Visual assessments of plant injury were made based on growth reduction, discoloration, leaf deformity and necrosis.

[7] = test system: AMARE: redroot pigwseed (Amaranthus retroflexus); test: Post-emergent Test I herbicidal activity; conditions: post-emergence, read-out: Visual Growth Reduction (%), AMARE; for pest or weed control at 4040 g/ha: 4.04 kg ai/ha; for pest or weed control at 4000 g/ha: 4 kg ai/ha
Method: as §2, §3, §4, §5

[8] = test system: IPOHE: ivyleaf morningglory (Ipomoea hederecea); test: Post-emergent Test I herbicidal activity; conditions: post-emergence, 336 h, read-out: Visual Growth Reduction (%) 14 Days After Application, IPOHE; for pest or weed control at 4040 g/ha: 4.04 kg ai/ha; for pest or weed control at 4000 g/ha: 4 kg ai/ha
Method: as §2, §3, §4, §5

[9] = test system: ECHCG: barnyardgrass (Echinochloa crus-galli); test: Post-emergent Test I herbicidal activity; conditions: post-emergence, 336 h, read-out: Visual Growth Reduction (%) 14 Days After Application, ECHCG; for pest or weed control at 4040 g/ha: 4.04 kg ai/ha; for pest or weed control at 4000 g/ha: 4 kg ai/ha
Method: as §2, §3, §4, §5

[10] = test system: HELAN: sunflower (Helianthus annuus); test: Post-emergent Test I herbicidal activity; conditions: post-emergence, 336 h, read-out: Visual Growth Reduction (%) 14 Days After Application, HELAN; for pest or weed control at 4040 g/ha: 4.04 kg ai/ha; for pest or weed control at 4000 g/ha: 4 kg ai/ha
Method: as §2, §3, §4, §5

[11] = test system: SETFA: giant foxtail (Setaria faberi); test: Post-emergent Test I herbicidal activity; conditions: post-emergence, 336 h, read-out: Visual Growth Reduction (%) 14 Days After Application, SETFA; for pest or weed control at 4040 g/ha: 4.04 kg ai/ha; for pest or weed control at 4000 g/ha: 4 kg ai/ha
Method: as §2, §3, §4, §5

[12] = test system: ECHCG: barnyardgrass (Echinochloa crus-galli); test: Pre-emergent Test I herbicidal activity; conditions: pre-emergence, 336 h, read-out: Visual Growth Reduction (%) 14 Days After Application, ECHCG; for pest or weed control at 4040 g/ha: 4.04 kg ai/ha; for pest or weed control at 4000 g/ha: 4 kg ai/ha
Method: as §1

Compound | pest or weed control at 4040 g/ha [1] [%] | pest or weed control at 4040 g/ha [2] [%] | pest or weed control at 4040 g/ha [3] [%] | pest or weed control at 4040 g/ha [12] [%] | pest or weed control at 4040 g/ha [4] [%] | pest or weed control at 4040 g/ha [5] [%] | pest or weed control at 4040 g/ha [6] [%] | pest or weed control at 4040 g/ha [7] [%] | pest or weed control at 4040 g/ha [8] [%] | pest or weed control at 4040 g/ha [9] [%] | pest or weed control at 4040 g/ha [10] [%] | pest or weed control at 4040 g/ha [11] [%] | pest or weed control at 4000 g/ha [1] [%] | pest or weed control at 4000 g/ha [2] [%] | pest or weed control at 4000 g/ha [3] [%] | pest or weed control at 4000 g/ha [12] [%] | pest or weed control at 4000 g/ha [4] [%] | pest or weed control at 4000 g/ha [5] [%] | pest or weed control at 4000 g/ha [7] [%] | pest or weed control at 4000 g/ha [8] [%] | other results
COC(=O)c1nc(-c2ccccc2)c(F)c(N)c1Cl [Compound 181] | – | – | – | – | – | – | – | – | – | – | – | – | – | – | – | – | – | – | – | – | pest or weed control at 1760 g/ha ([1]; 1.76 kg ai/ha): 0 to 29%; pest or weed control at 1760 g/ha ([2]; 1.76 kg ai/ha): 95 to 100%; pest or weed control at 1760 g/ha ([3]; 1.76 kg ai/ha): 85 to 94%; pest or weed control at 1760 g/ha ([4]; 1.76 kg ai/ha): 85 to 94%; pest or weed control at 1760 g/ha ([5]; 1.76 kg ai/ha): 75 to 84%; pest or weed control at 1760 g/ha ([6]; 1.76 kg ai/ha): 0 to 29%; pest or weed control at 1760 g/ha ([7]; 1.76 kg ai/ha): 95 to 100%; pest or weed control at 1760 g/ha ([8]; 1.76 kg ai/ha): 75 to 84%; pest or weed control at 1760 g/ha ([9]; 1.76 kg ai/ha): 0 to 29%; pest or weed control at 1760 g/ha ([10]; 1.76 kg ai/ha): 95 to 100%; pest or weed control at 1760 g/ha ([11]; 1.76 kg ai/ha): 0 to 29%
COC(=O)c1nc(-c2ccc(C#N)c(F)c2)c(F)c(N)c1Cl [Compound 135, methyl 4-amino-3-chloro-6-(4-cyano-3-fluorophenyl)-5-fluoropicolinate] | 30 to 44 | 95 to 100 | 95 to 100 | 30 to 44 | 95 to 100 | 30 to 44 | 60 to 74 | 95 to 100 | 85 to 94 | 95 to 100 | 95 to 100 | 75 to 84 | – | – | – | – | – | – | – | – | –
N#Cc1ccc(-c2nc(C(=O)O)c(Cl)c(N)c2F)cc1F [Compound 156] | 75 to 84 | 95 to 100 | 95 to 100 | 95 to 100 | 95 to 100 | 95 to 100 | 75 to 84 | 95 to 100 | 95 to 100 | 95 to 100 | 95 to 100 | 85 to 94 | – | – | – | – | – | – | – | – | –
COC(=O)c1nc(-c2ccc(Br)cc2)c(F)c(N)c1Cl [Compound 138, Methyl 4-amino-6-(4-bromophenyl)-3-chloro-5-fluoropicolinate] | – | – | – | – | – | – | – | – | – | – | – | – | 95 to 100 | 95 to 100 | 95 to 100 | 95 to 100 | 95 to 100 | 95 to 100 | 95 to 100 | 95 to 100 | pest or weed control at 4000 g/ha ([6]; 4 kg ai/ha): 75 to 84%; pest or weed control at 4000 g/ha [9]: 95 to 100%; pest or weed control at 4000 g/ha [10]: 95 to 100%; pest or weed control at 4000 g/ha [11]: 95 to 100%
COC(=O)c1nc(-c2ccc(Br)c(F)c2F)cc(N)c1Cl [Compound 114, methyl 4-amino-6-(4-bromo-2,3-difluorophenyl)-3-chloropicolinate] | – | – | – | – | – | – | – | – | – | – | – | – | – | – | – | – | – | – | – | – | pest or weed control at 3920 g/ha ([1]; 3.92 kg ai/ha): 95 to 100%; pest or weed control at 3920 g/ha ([2]; 3.92 kg ai/ha): 95 to 100%; pest or weed control at 3920 g/ha ([3]; 3.92 kg ai/ha): 95 to 100%; pest or weed control at 3920 g/ha ([12]; 3.92 kg ai/ha): 75 to 84%; pest or weed control at 3920 g/ha ([4]; 3.92 kg ai/ha): 95 to 100%; pest or weed control at 3920 g/ha ([5]; 3.92 kg ai/ha): 85 to 94%; pest or weed control at 3920 g/ha ([6]; 3.92 kg ai/ha): 0 to 29%; pest or weed control at 3920 g/ha ([7]; 3.92 kg ai/ha): 95 to 100%; pest or weed control at 3920 g/ha ([8]; 3.92 kg ai/ha): 85 to 94%; pest or weed control at 3920 g/ha ([9]; 3.92 kg ai/ha): 95 to 100%; pest or weed control at 3920 g/ha ([10]; 3.92 kg ai/ha): 95 to 100%; pest or weed control at 3920 g/ha ([11]; 3.92 kg ai/ha): 75 to 84%
Nc1c(F)c(-c2ccc(OC(F)F)cc2)nc(C(=O)O)c1Cl [Compound 143] | – | – | – | – | – | – | – | – | – | – | – | – | 60 to 74 | 85 to 94 | 85 to 94 | 85 to 94 | 95 to 100 | 95 to 100 | 95 to 100 | 45 to 59 | pest or weed control at 4000 g/ha [9]: 95 to 100%; pest or weed control at 4000 g/ha [10]: 95 to 100%; pest or weed control at 4000 g/ha [11]: 95 to 100%
